Source: patent publication US20140378426A1, “Methods and compositions for enhancing visual function” (priority 2013, published 2014)

Key:
[1] = cited from earlier work
[2] = target: T1, bovine rhodopsin activation of bovine rod transducin (Bos taurus, UniProt P02699); assay: radioactive filter binding assay: rhodopsin activation of bovine rod transducin (35S-GTPγS binding); assay type: biochemical
T1 construct: Rhodopsin can be purified from membrane fractions isolated from bovine rod outer segments; from tissue; host or cells: bovine retina / bovine rod outer segments
Source text: Vision enhancing activity of the estradiol analogs or derivatives can be examined in accordance with methods described herein or well known in the art. For example, the compounds can be assessed for ability to promote rhodopsin activation of rod transducin using a well-described radioactive filter binding assay. Detailed procedures for carrying out the assay are described in the art, e.g., Kono et al., Biochem. 44:799, 2005; Kono et al., FEBS Lett. 580:229-232, 2006; and Robinson et al., Methods Enzymol. 315:207-218, 2000). […] Effect of estradiol or an analog compound on rhodopsin activation of rod transducing can then be measured by monitoring binding of [35S]GTPγS to transducin in the presence or absence of the compound. The reaction mixture can contain, e.g., an appropriate buffer (e.g., an HEPES buffer or 10 mM Tris/1 mM MES buffer (pH 7.5)), 1 mM dithiothreitol, 5 mM MgCl2, 115 mM NaCl, 2.5 μM transducin, 0.01% DM, and 5 nM pigment (as determined from the extinction coefficient).
We examined the effect of the 17β-estradiol on opsin signaling and transducin activation. We measured the ability of estradiol to modulate rhodopsin activation of bovine rod transducin using the radioactive filter binding assay as described in Kono et al., Biochemistry 44:799-804, 2005; and Kono & Crouch, Methods Mol. Biol. 652:85-94, 2010. […]

T1 sequence (P02699 whole entry): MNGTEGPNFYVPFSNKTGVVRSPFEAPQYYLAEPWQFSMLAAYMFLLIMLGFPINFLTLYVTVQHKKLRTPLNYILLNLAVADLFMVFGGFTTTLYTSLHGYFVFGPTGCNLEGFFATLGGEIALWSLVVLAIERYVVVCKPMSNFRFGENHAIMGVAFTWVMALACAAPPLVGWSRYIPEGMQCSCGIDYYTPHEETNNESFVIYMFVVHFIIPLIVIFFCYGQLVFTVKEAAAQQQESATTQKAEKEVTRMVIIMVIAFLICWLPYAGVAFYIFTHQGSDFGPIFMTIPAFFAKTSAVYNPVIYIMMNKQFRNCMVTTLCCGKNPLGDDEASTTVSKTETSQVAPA

C[C@]12CC[C@@H]3c4ccc(O)cc4CC[C@H]3[C@@H]1CC[C@@H]2O [17β-estradiol]
potency in estrogenic effect relative to estriol ([1]; estradiol vs estriol): about 80 times
potency in estrogenic effect relative to estrone ([1]; estradiol vs estrone): about 10 times
35S-GTPγS bound to transducin in the presence vs. absence of 17β-estradiol ([2]; bovine rhodopsin illuminated with 15 sec pulse of yellow light, Rho+estradiol vs Rho alone, FIG. 1): about three-fold
rhodopsin activation of rod transducin (result in words) ([2]; presence of 17β-estradiol): significantly up-regulated
